The text below walks through data of patent US9585387B1, “PEHAM dendrimers for use in agriculture” (Starpharma Pty Ltd, priority 2009, dated 2017).

The data set in a line: Solubility of active constituents in dendrimer solutions by HPLC (Example 26). The data set is classed as physicochemical. As to the method: Four PEHAM dendrimers, each at 10 g/L and 100 g/L in water, were used for evaluation. A 15 g of each dendrimer was dissolved in distilled water and made accurately to 150 mL volume. Determination of pH was then made using a calibrated pH meter and electrode.
To prepare saturated solutions of active constituent in 100 g/L dendrimer solutions, 10 mL of each 100 g/L dendrimer solution was placed into a 50 mL test tube and 0.2 g of active constituent was then also added. The test tube was then briefly shaken to disperse the contents, before being placed in an ultrasonic water bath, and subjected to sonication for 30 mins at […] The test tube and contents were then cooled to […] and then a 2.0 mL aliquot was taken and filtered through a 0.45 μm PTFE membrane filter.
To prepare saturated solutions of active constituent in 10 g/L dendrimer solutions, 1.0 mL of each 100 g/L dendrimer solution was placed into a 50 mL test tube and a 9.0 mL aliquot of distilled water added and 0.2 g of active constituent was then also added. The test tube was then briefly shaken to disperse the contents, before being placed in an ultrasonic water bath, and subjected to sonication for 30 mins at […] The test tube and contents were then cooled to […] and then a 2.0 mL aliquot was taken and filtered through a 0.45 μm PTFE membrane filter
Each prepared and filtered solution was examined in a light box for Tyndall Scattering (light scattering by particles in a colloid or particles in a fine suspension). A visual observation was made and recorded for each solution. Ten active constituents that were selected to cover a range of water solubility were treated according to the method described here. A total of 200 filtered solutions were prepared.
High Performance Liquid Chromatography was used to analyse each active constituent in each dendrimer solution. Each saturated active constituent solution was freshly prepared for immediate analysis or frozen at <−15° C. where analysis could not take place within 2 hours of preparation. The following are details of the HPLC equipment used. For each active constituent a set of 4 calibration solutions was prepared 0 to 25 ppm. A sequence of injections comparing the peak area of the calibration solutions and the dendrimer solutions was then undertaken. The dendrimer solutions were diluted as required to maintain their respective peak area response within the calibration range. The active constituent concentration (ppm) in the dendrimer solution was determined by calculation: RF×SA×DF, where RF=Response Factor (concentration of calibration solution per unit of peak area, SA=Sample Peak Area (peak area of the sample solution), and DF=Dilution Factor (dilution of the sample solution). HPLC conditions were varied to ensure the optimum detection and separation of each active constituent from excipients.

On to `CCC(COCC(O)CN(CCN)CCN)(COCC(O)CN(CCN)CCN)COCC(O)CN(CCN)CCN` (stereo not drawn) [Example 14, [(C)=TMPTGE; (IF1)=OH; (BR1)=DETA; (TF)=Primary NH2; G=1]], for which the “Ratio of Active Ingredient in Dendrimer Solution (ppm) to Active Ingredient in Water (ppm)” value (“Ratio of Active Ingredient” below) is recorded as 10 (6-BAP, 10 g/L loading); 2740 (6-BAP, 100 g/L loading); 1 (Bifenthrin, 10 g/L loading); 4 (Bifenthrin, 100 g/L loading); 1 (Clomazone, 10 g/L loading); 1 (Clomazone, 100 g/L loading). Besides, the “Ratio of Active Ingredient” value by setting is: (Flumetsulam, 10 g/L loading) 2; (Flumetsulam, 100 g/L loading) 2; (Mcylobutanil, 10 g/L loading) 3; (Mcylobutanil, 100 g/L loading) 4; (Penconazole, 10 g/L loading) 2; (Penconazole, 100 g/L loading) 6. For the same molecule, the “Ratio of Active Ingredient” value runs as follows: (Pendimethalin, 10 g/L loading) 172; (Pendimethalin, 100 g/L loading) 15; (Propaquizafop, 10 g/L loading) 1; (Propaquizafop, 100 g/L loading) 1; (Thiamethoxam, 10 g/L loading) 2; (Thiamethoxam, 100 g/L loading) 1. Besides, the “Ratio of Active Ingredient” value is reported as 46 (Thidiazuron, 10 g/L loading) and 329 (Thidiazuron, 100 g/L loading).
Consider `CCC(COCC(O)CN(CCOC)CCOC)(COCC(O)CN(CCOC)CCOC)COCC(O)CN(CCOC)CCOC` (stereo not drawn) [Example 15, [(C)=TMPTGE; (FF)=Et; (IF1)=OH; (BR1)=DEA; (TF)=OMe; G=1]], for which the “Ratio of Active Ingredient” value reads like this: (6-BAP, 10 g/L loading) 3; (6-BAP, 100 g/L loading) 475; (Bifenthrin, 10 g/L loading) 9; (Bifenthrin, 100 g/L loading) 1; (Clomazone, 10 g/L loading) 1; (Clomazone, 100 g/L loading) 1. The “Ratio of Active Ingredient” value came out at 1 (Flumetsulam, 10 g/L loading); 2 (Flumetsulam, 100 g/L loading); 2 (Mcylobutanil, 10 g/L loading); 3 (Mcylobutanil, 100 g/L loading); 2 (Penconazole, 10 g/L loading); 12 (Penconazole, 100 g/L loading). For the same molecule, the “Ratio of Active Ingredient” value is, setting by setting: (Pendimethalin, 10 g/L loading) 44; (Pendimethalin, 100 g/L loading) 41; (Propaquizafop, 10 g/L loading) 1; (Propaquizafop, 100 g/L loading) 1; (Thiamethoxam, 10 g/L loading) 2; (Thiamethoxam, 100 g/L loading) 2. The “Ratio of Active Ingredient” value runs as follows: (Thidiazuron, 10 g/L loading) 5; (Thidiazuron, 100 g/L loading) 17.
Consider `CCC(COCC(O)CN(CC(=O)[O-])CC(=O)[O-])(COCC(O)CN(CC(=O)[O-])CC(=O)[O-])COCC(O)CN(CC(=O)[O-])CC(=O)[O-].[Na+].[Na+].[Na+].[Na+].[Na+].[Na+]` (stereo not drawn) [Example 10, [(C)=TMPTGE; (FF)=Et; (IF1)=OH; (BR1)=IDA; (TF)=CO2Na; G=1]], for which the “Ratio of Active Ingredient” value by setting is: (6-BAP, 10 g/L loading) 7; (6-BAP, 100 g/L loading) 448; (Bifenthrin, 10 g/L loading) 1; (Bifenthrin, 100 g/L loading) 1; (Clomazone, 10 g/L loading) 1; (Clomazone, 100 g/L loading) 1. The “Ratio of Active Ingredient” value runs as follows: (Flumetsulam, 10 g/L loading) 2; (Flumetsulam, 100 g/L loading) 2; (Mcylobutanil, 10 g/L loading) 2; (Mcylobutanil, 100 g/L loading) 2; (Penconazole, 10 g/L loading) 2; (Penconazole, 100 g/L loading) 3. The “Ratio of Active Ingredient” value (Pendimethalin, 10 g/L loading) was 11; the “Ratio of Active Ingredient” value (Pendimethalin, 100 g/L loading) came to 2; the “Ratio of Active Ingredient” value (Propaquizafop, 10 g/L loading) turned out to be 1; the “Ratio of Active Ingredient” value (Propaquizafop, 100 g/L loading) is reported as 1; the “Ratio of Active Ingredient” value (Thiamethoxam, 10 g/L loading) is recorded as 2; the “Ratio of Active Ingredient” value (Thiamethoxam, 100 g/L loading) is given as 1. The “Ratio of Active Ingredient” value reads like this: (Thidiazuron, 10 g/L loading) 19; (Thidiazuron, 100 g/L loading) 40.
